The values below come from US20200297722A1, “pH-Modulated Formulations for Pulmonary Delivery” (GRIFOLS, S.A., priority 2009, published 2020).

For data set [1] the following is noted: pH 7.4 and 25° C.; cited from earlier work.
The nature of data set [2]: aqueous solubility of gallium as a function of pH. Type of data set: physicochemical. The source says: Gallium is a semi-metallic element in group 13 (IIIa) of the periodic table. Gallium is trivalent in aqueous solution (Ga^3+). The free hydrated ion Ga^3+hydrolyzes nearly completely at pH values close to neutral, readily forming highly insoluble amorphous Ga(OH)3. In addition to precipitating as hydroxides and oxyhydroxides , Ga will also form highly insoluble phosphates at pH values close to neutral. L R Bernstein (1998) provides a brief review of the solution chemistry of gallium. […] At low and high pH values, gallium has many orders of magnitude greater solubility. […] This difference in solubility can be exploited in an inhalation product by formulating gallium or its salts (e.g., gallium nitrate) at a very low or very high pH.

A short description of data set [3]: calculated gallium concentration and precipitation in lung fluid after one AERx strip. Details: species or system human. From the text:
Thus, one would expect that there would be a depot-like effect in the lung in terms of the release of gallium from the solid state over time. This would result in a delayed absorption profile of gallium into the bloodstream, with a reduced CMAX and delayed TMAX. This would also reduce or eliminate side effects resulting from high systemic concentrations.

The conditions of data set [4]: cited from earlier work.
Where [5] appears, read: in lung fluid at ~pH 7.4, assumed deposition.

On to `[Ga]` [gallium], for which the “total aqueous solubility of gallium” value in data set [1] is ~1 µM. Moreover, in data set [2] (pH 2 versus pH 7.4), the “times greater solubility than at pH 7.4” value is listed as ~10,000 times. Besides, in data set [2] (pH 10 versus pH 7.4), the “times greater solubility than at pH 7.4” value was ~500 times. Also, the “resulting gallium concentration in lung fluid” value in data set [3] (assumed: 25 μL of pH 2 solution equilibrated to ~pH 7.4 in 20 mL lung fluid) was ~12.5 µM. The “excess of concentration over equilibrium solubility at pH 7.4” value in data set [3] (assumed: 25 μL of pH 2 solution in 20 mL lung fluid) is ~12.5 fold. Moreover, in data set [3] (setting [5]), the “gallium likely to precipitate out of solution” value is given as 96% and the gallium remaining soluble is on record as 8%.
Take `NC[C@H]1O[C@H](O[C@H]2[C@H](O)[C@@H](O[C@H]3O[C@H](CO)[C@@H](O)[C@H](N)[C@H]3O)[C@H](N)C[C@@H]2N)[C@H](N)C[C@@H]1O` [tobramycin]: in data set [4], the “solubility in water” value is “very soluble in water”.
